From article PMC9430770 (Microbiology Spectrum, 2022)

Columns and labels:
[1] = test system: C. albicans eno1/eno1 mutant strain; assay: Galleria mellonella infection model, eno1/eno1 strain; type: in vivo, Candida albicans; conditions: G. mellonella, 10 mg/kg
Experimental: To assess whether Eno1 is a therapeutic target of BE, we constructed a homozygous deletion strain for the ENO1 gene (eno1/eno1). We then investigated the difference in the antifungal efficacy of BE on the infections caused by the parent strain SN152 and the eno1/eno1 strain in the Galleria mellonella infection model. We divided the G. mellonella into 5 groups, with 10 larvae in each group. All 10 larvae died after a 24-h infection with the SN152 strain, while only 3 larvae died after 24 h when infected with the eno1/eno1 strain; the remaining larvae died within 7 days. Compared with the group infected with the parent strain, the survival time of the group infected with the eno1/eno1 strain was longer (P < 0.01) (Fig. 4A). […] The survival rate of larvae in the BE (10 mg/kg of body weight)-treated, SN152 strain-infected group was extended by 30%, compared with that in the group infected with the SN152 strain but without antifungal drug treatment (P < 0.001) (Fig. 4B). […] All 10 larvae in the BE-treated group died within 6 days, and all 10 larvae without BE treatment were killed within 7 days (Fig. 4C). However, FLC (10 mg/kg) can extend the survival rate of larvae infected by the eno1/eno1 strain by 60% (P < 0.01) (Fig. 4D) compared with the group infected with the eno1/eno1 strain without antifungal drug treatment.
FIG 4 Eno1 acts as a therapeutic target of BE. […] Each curve represents a group of 10 larvae (n =10) monitored daily for survival for up to 10 days after infection. […]
Virulence testing of C. albicans was done in Galleria mellonella as described previously ([56]). […] After growth in YPD media overnight at 30°C and 200 rpm, C. albicans SN152 cells or eno1/eno1 mutant cells were washed with PBS 3 times and diluted to the desired concentration (1 × 10^7 cells/mL) determined by counting with a hemacytometer. […] The death of G. mellonella was assessed daily and analyzed statistically by the Kaplan-Meier method (log-rank test).

[2] = molecular target: mutant Eno1 (D263A, S269A, and K273A) (Candida albicans, UniProt P30575, D263A/K273A/S269A); assay: SPR binding of BE to mutant Eno1
mutant Eno1 (D263A, S269A, and K273A), sequence (P30575 whole entry D263A/S269A/K273A): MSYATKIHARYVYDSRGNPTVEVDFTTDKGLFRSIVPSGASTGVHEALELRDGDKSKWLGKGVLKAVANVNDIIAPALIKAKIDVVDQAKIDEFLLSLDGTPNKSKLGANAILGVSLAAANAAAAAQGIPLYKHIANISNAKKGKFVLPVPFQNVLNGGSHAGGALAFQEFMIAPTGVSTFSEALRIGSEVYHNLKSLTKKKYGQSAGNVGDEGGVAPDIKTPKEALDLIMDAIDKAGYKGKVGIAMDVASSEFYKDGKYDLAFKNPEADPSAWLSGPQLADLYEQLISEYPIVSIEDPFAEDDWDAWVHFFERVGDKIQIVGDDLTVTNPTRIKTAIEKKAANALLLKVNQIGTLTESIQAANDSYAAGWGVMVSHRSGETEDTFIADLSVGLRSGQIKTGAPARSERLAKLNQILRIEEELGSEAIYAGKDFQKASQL
Text: SPR, surface plasmon resonance; RU, response unit.
The benzene ring with hydroxyl group can form a cation-π interaction with K273 (Fig. 6C). To confirm that D263, S269, and K273 play crucial roles in interacting with BE, we have mutated these three amino acids (D263A, S269A, and K273A) in CaEno1.

Q: With O=c1cc(-c2ccccc2)oc2cc(O)c(O)c(O)c12 [BE, Baicalein] as the compound, how does the “survival rate of larvae extended versus infected group without drug treatment” value [1] read?
A: The value was “no significant effect”.

Q: And the “time within which all 10 larvae died” value ([1]; eno1/eno1-infected)?
A: The value was ≤ 6 days.

Q: What about the “binding detected by SPR analysis” value [2] of the same compound?
A: The value was “no binding”.
